Structures are written as SMILES.

IC50 and Ki data for 18 compounds are collected here from patent US11130769B2 (Prelude Therapeutics Incorporated, priority 2018, dated 2021).

Assay [1] has as its system H929 cells. In words: Cell viability assay (H929 10 FBS). In kind it is cell-based. The following applies: Homo sapiens, NCI-H929, 24 hours, read-out: H929_10FBS IC50. The gist of the method:
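ATP-based luminescence (CellTiter-Glo or ATPlite 1 Step, 30-60 min at RT) gauged viability of H929 myeloma cells after 24 h compound treatment at 37 °C. Cells plated at 4000 per well in 10% FBS RPMI 1640 supplemented with pyruvate, HEPES and glucose.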

Assay [2] has as its target MCL-1 (Homo sapiens (Human), UniProt Q07820). Kind of assay: Cell free Mcl-1:Bim affinity assay (fluorescence polarization competition). In kind it is binding. The note with it: 15 nM MCL-1, 5 nM FITC-Bim, 1 hour at room temperature; class symbols; read-out: BIM_Ki. The gist of the method:
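Fluorescence polarization competition: 10-point 3-fold compound dilutions displaced 5 nM FITC-Bim from 15 nM MCL-1 over 1 h at room temperature. Ki was derived from the fitted IC50 using the Nikolovska-Coleska equation, with percent inhibition normalized to DMSO and positive controls.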
(Polarisation of emitted light reports the rotation of a fluorescent probe.)

Chain of MCL-1 (Q07820 whole entry): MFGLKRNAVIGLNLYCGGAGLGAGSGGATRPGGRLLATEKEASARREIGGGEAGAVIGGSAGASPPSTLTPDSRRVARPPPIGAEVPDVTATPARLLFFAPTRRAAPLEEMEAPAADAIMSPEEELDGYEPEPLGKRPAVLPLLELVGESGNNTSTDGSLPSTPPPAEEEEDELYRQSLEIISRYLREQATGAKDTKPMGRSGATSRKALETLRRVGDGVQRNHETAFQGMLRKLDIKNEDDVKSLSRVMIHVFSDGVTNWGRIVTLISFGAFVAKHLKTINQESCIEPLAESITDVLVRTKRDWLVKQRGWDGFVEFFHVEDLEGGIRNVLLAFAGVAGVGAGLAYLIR

In the case of `CO[C@@H]1CCCCC(=O)NS(=O)(=O)c2ccc3c(c2)N(C[C@@H]2CC[C@H]21)C[C@@]1(CCCc2cc(Cl)ccc21)CO3` [Example 76, (3R,6R,7R,21S)-6′-Chloro-7-methoxy-14,14-dioxo-spiro[19-oxa-14-thia-1,13-diazatetracyclo[13.7.2.03,6.018,23]tetracosa-15,17,23-triene-21,1′-tetralin]-12-one], the IC50 (as a rule, the point on the concentration scale where inhibition reaches its midpoint) in assay [1] is over 1 µM. For the same compound, the Ki in assay [2] was 0.001 to 0.1 µM.

For `CO[C@H]1CCCCC(=O)NS(=O)(=O)c2ccc3c(c2)N(C[C@@H]2CC[C@H]21)C[C@@]1(CCCc2cc(Cl)ccc21)CO3` [Example 77, (3R,6R,7S,21S)-6′-Chloro-7-methoxy-14,14-dioxo-spiro[19-oxa-14-thia-1,13-diazatetracyclo[13.7.2.03,6.018,23]tetracosa-15,17,23-triene-21,1′-tetralin]-12-one], the IC50 in assay [1] was over 1 µM. The Ki in assay [2] lay in the range of 0.001 to 0.1 µM.

For the compound `CO[C@@H]1/C=C/C[C@H](C)[C@@H](C)C(=O)NS(=O)(=O)c2ccc3c(c2)N(C[C@@H]2CC[C@H]21)C[C@@]1(CCCc2cc(Cl)ccc21)CO3` [Example 78, (3R,6R,7R,8E,1S,12R,22S)-6′-Chloro-7-methoxy-11,12-dimethyl-15,15-dioxo-spiro[20-oxa-15-thia-1,14-diazatetracyclo[14.7.2.03,6.019,24]pentacosa-8,16,18,24-tetraene-22,1′-tetralin]-13-one], the IC50 in assay [1] is over 1 µM. The Ki in assay [2] was in the range of 0.001 to 0.1 µM.

For the compound `CO[C@H]1/C=C/C[C@H](C)[C@@H](C)C(=O)NS(=O)(=O)c2ccc3c(c2)N(C[C@@H]2CC[C@H]21)C[C@@]1(CCCc2cc(Cl)ccc21)CO3` [Example 79, (3R,6R,7S,8E,11S,12R,22S)-6′-Chloro-7-methoxy-11,12-dimethyl-15,15-dioxo-spiro[20-oxa-15-thia-1,14-diazatetracyclo[14.7.2.03,6.019,24]pentacosa-8,16,18,24-tetraene-22,1′-tetralin]-13-one], in assay [1], the IC50 is over 1 µM. In addition, in assay [2], the Ki lay in the range of 0.001 to 0.1 µM.

Regarding `CO[C@H]1/C=C/CCCC(=O)NS(=O)(=O)c2ccc3c(c2)N(C[C@@H]2CC[C@H]21)C[C@@]1(CCCc2cc(Cl)ccc21)CO3` [Example 80, (3R,6R,7S,8E,22S)-6′-Chloro-7-methoxy-15,15-dioxo-spiro[20-oxa-15-thia-1,14-diazatetracyclo[14.7.2.03,6.019,24]pentacosa-8,16(25),17,19(24)-tetraene-22,1′-tetralin]-13-one], the IC50 in assay [1] was over 1 µM. Moreover, the Ki in assay [2] fell in the range of 0.001 to 0.1 µM.

With `CO[C@H]1/C=C/CC[C@@H](C)C(=O)NS(=O)(=O)c2ccc3c(c2)N(C[C@@H]2CC[C@H]21)C[C@@]1(CCCc2cc(Cl)ccc21)CO3` [Example 81, (3R,6R,7S,8E,12R,22S)-6′-Chloro-7-methoxy-12-methyl-15,15-dioxo-spiro[20-oxa-15-thia-1,14-diazatetracyclo[14.7.2.03,6.019,24]pentacosa-8,16(25),17,19(24)-tetraene-22,1′-tetralin]-13-one], the IC50 in assay [1] is over 1 µM. In addition, the Ki in assay [2] lay in the range of 0.001 to 0.1 µM.

As to `CO[C@H]1/C=C/C[C@H](C)CC(=O)NS(=O)(=O)c2ccc3c(c2)N(C[C@@H]2CC[C@H]21)C[C@@]1(CCCc2cc(Cl)ccc21)CO3` [Example 82, (3R,6R,7S,8E,11S,22S)-6′-Chloro-7-methoxy-11-methyl-15,15-dioxo-spiro[20-oxa-15-thia-1,14-diazatetracyclo[14.7.2.03,6.019,24]pentacosa-8,16(25),17,19(24)-tetraene-22,1′-tetralin]-13-one], the half-inhibitory concentration (IC50) in assay [1] is over 1 µM. Also, the Ki in assay [2] is 0.001 to 0.1 µM.

With `CO[C@H]1/C=C/CCCCC(=O)NS(=O)(=O)c2ccc3c(c2)N(C[C@@H]2CC[C@H]21)C[C@@]1(CCCc2cc(Cl)ccc21)CO3` [Example 83, (3R,6R,7S,8E,23S)-6′-Chloro-7-methoxy-16,16-dioxo-spiro[21-oxa-16-thia-1,15-diazatetracyclo[15.7.2.03,6.020,25]hexacosa-8,17,19,25-tetraene-23,1′-tetralin]-14-one], in assay [1], the IC50 is over 1 µM. Moreover, in assay [2], the Ki lay within 0.001 to 0.1 µM.

Turning to `CO[C@H]1/C=C/C[C@@H](C)CC(=O)NS(=O)(=O)c2ccc3c(c2)N(C[C@@H]2CC[C@H]21)C[C@@]1(CCCc2cc(Cl)ccc21)CO3` [Example 84, (3R,6R,7S,8E,11R,22S)-6′-Chloro-7-methoxy-11-methyl-15,15-dioxo-spiro[20-oxa-15-thia-1,14-diazatetracyclo[14.7.2.03,6.019,24]pentacosa-8,16(25),17,19(24)-tetraene-22,1′-tetralin]-13-one], the IC50 in assay [1] was over 1 µM. Besides, in assay [2], the Ki is 0.001 to 0.1 µM.

Take `CO[C@H]1/C=C/CC[C@H](C)C(=O)NS(=O)(=O)c2ccc3c(c2)N(C[C@@H]2CC[C@H]21)C[C@@]1(CCCc2cc(Cl)ccc21)CO3` [Example 85, (3R,6R,7S,8E,12S,22S)-6′-Chloro-7-methoxy-12-methyl-15,15-dioxo-spiro[20-oxa-15-thia-1,14-diazatetracyclo[14.7.2.03,6.019,24]pentacosa-8,16(25),17,19(24)-tetraene-22,1′-tetralin]-13-one]: in assay [1], the half-maximal inhibitory concentration (IC50) was over 1 µM. Moreover, in assay [2], the Ki lay in the range of 0.001 to 0.1 µM.

As for `CO[C@@H]1/C=C/CCC2(CCC2)C(=O)NS(=O)(=O)c2ccc3c(c2)N(C[C@@H]2CC[C@H]21)C[C@@]1(CCCc2cc(Cl)ccc21)CO3` [Example 86, (3R,6R,7R,8E,22S)-6′-Chloro-7-methoxy-12,12-(1,3-propylene)-15,15-dioxo-spiro[[20]oxa-15-thia-1,14-diazatetracyclo[14.7.2.03,6.019,24]pentacosa[8,16(25),17,19(24)]tetraene-22,1′-tetralin]-13-one], in assay [1], the IC50 is over 1 µM. In addition, in assay [2], the Ki fell in the range of 0.001 to 0.1 µM.

For `COC[C@H]1C(=O)NS(=O)(=O)c2ccc3c(c2)N(C[C@@H]2CC[C@H]2[C@H](OC)/C=C/C[C@@H]1C)C[C@@]1(CCCc2cc(Cl)ccc21)CO3` [Example 87, (3R,6R,7R,8E,11S,12S,22S)-6′-Chloro-7-methoxy-12-(methoxymethyl)-11-methyl-15,15-dioxo-spiro[20-oxa-15-thia-1,14-diazatetracyclo[14.7.2.03,6.019,24]pentacosa-8,16,18,24-tetraene-22,1′-tetralin]-13-one], the IC50 in assay [1] is under 1 µM. In assay [2], the Ki is under 0.001 µM.

For `COC[C@H]1C(=O)NS(=O)(=O)c2ccc3c(c2)N(C[C@@H]2CC[C@H]2[C@H](O)/C=C/C[C@@H]1C)C[C@@]1(CCCc2cc(Cl)ccc21)CO3` [Example 88, (3R,6R,7R,8E,11S,12S,22S)-6′-Chloro-7-hydroxy-12-(methoxymethyl)-11-methyl-15,15-dioxo-spiro[20-oxa-15-thia-1,14-diazatetracyclo[14.7.2.03,6.019,24]pentacosa-8,16,18,24-tetraene-22,1′-tetralin]-13-one], the IC50 in assay [1] is under 1 µM. The Ki in assay [2] was under 0.001 µM.

As for `COCC[C@H]1C(=O)NS(=O)(=O)c2ccc3c(c2)N(C[C@@H]2CC[C@H]2[C@H](OC)/C=C/C[C@@H]1C)C[C@@]1(CCCc2cc(Cl)ccc21)CO3` [Example 89, (3R,6R,7R,8E,11S,12R,22S)-6′-Chloro-7-methoxy-12-(2-methoxyethyl)-1-methyl-15,15-dioxo-spiro[20-oxa-15-thia-1,14-diazatetracyclo[14.7.2.03,6.019,24]pentacosa-8,16,18,24-tetraene-22,1′-tetralin]-13-one], the 50% inhibitory concentration (IC50) in assay [1] was over 1 µM. The Ki in assay [2] lay in the range of 0.001 to 0.1 µM.

For `CO[C@@H]1/C=C/C[C@H](C)[C@@H](CC(=O)N2CC(F)(F)C2)C(=O)NS(=O)(=O)c2ccc3c(c2)N(C[C@@H]2CC[C@H]21)C[C@@]1(CCCc2cc(Cl)ccc21)CO3` [Example 90, (3R,6R,7R,8E,11S,12R,22S)-6′-Chloro-12-[2-(3,3-difluoroazetidin-1-yl)-2-oxo-ethyl]-7-methoxy-11-methyl-15,15-dioxo-spiro[20-oxa-15-thia-1,14-diazatetracyclo[14.7.2.03,6.019,24]pentacosa-8,16,18,24-tetraene-22,1′-tetralin]-13-one], in assay [1], the 50% inhibitory concentration (IC50) was over 1 µM. The Ki in assay [2] was under 0.001 µM.

As for `CO[C@@H]1/C=C/C[C@H](C)[C@@H](CC(=O)N(C)C)C(=O)NS(=O)(=O)c2ccc3c(c2)N(C[C@@H]2CC[C@H]21)C[C@@]1(CCCc2cc(Cl)ccc21)CO3` [Example 91, 2-[(3R,6R,7R,8E,11S,12R,22S)-6′-Chloro-7-methoxy-11-methyl-13,15,15-trioxo-spiro[20-oxa-15-thia-1,14-diazatetracyclo[14.7.2.03,6.019,24]pentacosa-8,16,18,24-tetraene-22,1′-tetralin]-12-yl]-N,N-dimethyl-acetamide], the IC50 in assay [1] is over 1 µM. Also, the Ki in assay [2] is 0.001 to 0.1 µM.

With `CO[C@@H]1/C=C/C[C@H](C)[C@@H](CC(=O)N2CCOCC2)C(=O)NS(=O)(=O)c2ccc3c(c2)N(C[C@@H]2CC[C@H]21)C[C@@]1(CCCc2cc(Cl)ccc21)CO3` [Example 92, (3R,6R,7R,8E,11S,12R,22S)-6′-Chloro-7-methoxy-11-methyl-12-(2-morpholino-2-oxo-ethyl)-15,15-dioxo-spiro[20-oxa-15-thia-1,14-diazatetracyclo[14.7.2.03,6.019,24]pentacosa-8,16,18,24-tetraene-22,1′-tetralin]-13-one], the IC50 in assay [1] is under 1 µM. Besides, the Ki in assay [2] is under 0.001 µM.

Turning to `COCCOC[C@H]1C(=O)NS(=O)(=O)c2ccc3c(c2)N(C[C@@H]2CC[C@H]2[C@H](OC)/C=C/C[C@@H]1C)C[C@@]1(CCCc2cc(Cl)ccc21)CO3` [Example 93, (3R,6R,7R,8E,11S,12S,22S)-6′-chloro-7-methoxy-12-(2-methoxyethoxymethyl)-11-methyl-15,15-dioxo-spiro[20-oxa-15-thia-1,14-diazatetracyclo[14.7.2.03,6.019,24]pentacosa-8,16,18,24-tetraene-22,1′-tetralin]-13-one], the IC50 in assay [1] is over 1 µM. Further, the Ki in assay [2] lay within 0.001 to 0.1 µM.
